In ChEMBL document CHEMBL1201862, “PubChem BioAssay data set” (2004):
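Compound exposure: 48 hours, 5 concentrations, 96-well plates. GI50 = concentration required for 50% inhibition of growth.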 Active and inactive are the calls of the source. No stated cut-off is given here; in the data, active = GI50 up to about 1.1 µM and inactive = higher.

How the values were obtained:
Assay in all cases: growth of human tumour cells (NCI), 48 h
786-0 = system: 786-0
ACHN = system: ACHN
CAKI-1 = system: CAKI-1
COLO 205 = system: COLO 205
IGROV-1 = system: IGROV-1
M14 = system: M14
MOLT-4 = system: MOLT-4
Malme-3M = system: Malme-3M
NCI-H23 = system: NCI-H23
OVCAR-3 = system: OVCAR-3
OVCAR-5 = system: OVCAR-5
SK-MEL-28 = system: SK-MEL-28
SK-MEL-5 = system: SK-MEL-5
SK-OV-3 = system: SK-OV-3
SNB-75 = system: SNB-75
SW-620 = system: SW-620
TK-10 = system: TK-10
SR = system: SR
RXF 393 = system: RXF 393

| SMILES | GI50 (786-0) | GI50 (ACHN) | GI50 (CAKI-1) | GI50 (COLO 205) | GI50 (IGROV-1) | GI50 (M14) | GI50 (MOLT-4) | GI50 (Malme-3M) | GI50 (NCI-H23) | GI50 (OVCAR-3) | GI50 (OVCAR-5) | GI50 (SK-MEL-28) | GI50 (SK-MEL-5) | GI50 (SK-OV-3) | GI50 (SNB-75) | GI50 (SW-620) | GI50 (TK-10) | GI50 (SR) | GI50 (RXF 393) |
| --- | --- | --- | --- | --- | --- | --- | --- | --- | --- | --- | --- | --- | --- | --- | --- | --- | --- | --- | --- |
| CN(C)c1ccc(/C=C/C(=O)C(C)(C)C)cc1Br | 24 µM (inactive) | 31.5 µM (inactive) | 23.9 µM (inactive) | 25.7 µM (inactive) | 35.4 µM (inactive) | 18.9 µM (inactive) | 21.2 µM (inactive) | 28.4 µM (inactive) | 26.1 µM (inactive) | 33.3 µM (inactive) | 49 µM (inactive) | 17.8 µM (inactive) | 18.7 µM (inactive) | 52.1 µM (inactive) | 20.1 µM (inactive) | 27.7 µM (inactive) | 30.8 µM (inactive) | – | – |
| O=C1c2ccccc2C(=O)C1(O)c1c[nH]c2ccccc12 | > 100 µM (inactive) | – | > 100 µM (inactive) | > 100 µM (inactive) | > 100 µM (inactive) | > 100 µM (inactive) | > 100 µM (inactive) | > 100 µM (inactive) | > 100 µM (inactive) | > 100 µM (inactive) | > 100 µM (inactive) | > 100 µM (inactive) | – | > 100 µM (inactive) | > 100 µM (inactive) | > 100 µM (inactive) | > 100 µM (inactive) | > 100 µM (inactive) | – |
| COc1ccccc1/N=N/c1c(-c2ccccc2)nn(C(=O)CC(=O)Nc2ccccc2Cl)c1-c1ccccc1 | > 100 µM (inactive) | > 100 µM (inactive) | – | > 100 µM (inactive) | > 100 µM (inactive) | > 100 µM (inactive) | 81.8 µM (inactive) | > 100 µM (inactive) | > 100 µM (inactive) | > 100 µM (inactive) | > 100 µM (inactive) | > 100 µM (inactive) | > 100 µM (inactive) | > 100 µM (inactive) | > 100 µM (inactive) | > 100 µM (inactive) | > 100 µM (inactive) | > 100 µM (inactive) | 24.6 µM (inactive) |
| O=C(/C=C/c1cccs1)c1ccc(C(=O)/C=C/c2cccs2)cc1 | > 100 µM (inactive) | > 100 µM (inactive) | > 100 µM (inactive) | > 100 µM (inactive) | > 100 µM (inactive) | > 100 µM (inactive) | > 100 µM (inactive) | > 100 µM (inactive) | > 100 µM (inactive) | > 100 µM (inactive) | > 100 µM (inactive) | > 100 µM (inactive) | – | > 100 µM (inactive) | > 100 µM (inactive) | > 100 µM (inactive) | > 100 µM (inactive) | > 100 µM (inactive) | – |
| COc1ccc(C(=O)OCC2OC(n3cnc4c(=S)nc[nH]c43)C(OC(=O)c3ccc(OC)cc3)C2OC(=O)c2ccc(OC)cc2)cc1 (configuration not stated) | 15.3 µM (inactive) | 76.9 µM (inactive) | 48.6 µM (inactive) | > 100 µM (inactive) | 57 µM (inactive) | 3.36 µM (inactive) | 22.5 µM (inactive) | 32.2 µM (inactive) | 39.7 µM (inactive) | 5.06 µM (inactive) | 23.1 µM (inactive) | > 100 µM (inactive) | 69.2 µM (inactive) | – | 7.52 µM (inactive) | 46.9 µM (inactive) | 7.43 µM (inactive) | 14 µM (inactive) | – |
| CCCCCCCC(=O)OC[C@@H](C[As](=O)(O)O)OC(=O)CCCCCCC | 12.1 µM (inactive) | 12.7 µM (inactive) | – | 17.8 µM (inactive) | 5.21 µM (inactive) | 14.9 µM (inactive) | 2.58 µM (inactive) | 14.1 µM (inactive) | 12.9 µM (inactive) | – | – | 13.5 µM (inactive) | 13.9 µM (inactive) | 14.6 µM (inactive) | 11.5 µM (inactive) | 12.9 µM (inactive) | – | 4.95 µM (inactive) | 4.97 µM (inactive) |
| COC(=O)C1=C(C)N2CCCOC2(C)C(C(=O)OC)C1c1cccc(Cl)c1 (configuration not stated) | – | 28.2 µM (inactive) | 17.5 µM (inactive) | 17.3 µM (inactive) | 25.7 µM (inactive) | 20 µM (inactive) | 16.7 µM (inactive) | – | 31.8 µM (inactive) | 22.2 µM (inactive) | – | 21.7 µM (inactive) | > 100 µM (inactive) | – | 0.452 µM (active) | > 100 µM (inactive) | 53 µM (inactive) | > 10 µM (inactive) | 33.1 µM (inactive) |
| Cc1ccc(SC(CCC(Sc2ccc(C)cc2)Sc2ccc(C)cc2)Sc2ccc(C)cc2)cc1 | > 100 µM (inactive) | > 100 µM (inactive) | > 100 µM (inactive) | > 100 µM (inactive) | > 100 µM (inactive) | > 100 µM (inactive) | > 100 µM (inactive) | – | > 100 µM (inactive) | > 100 µM (inactive) | – | > 100 µM (inactive) | > 100 µM (inactive) | > 100 µM (inactive) | > 100 µM (inactive) | > 100 µM (inactive) | > 100 µM (inactive) | > 100 µM (inactive) | > 100 µM (inactive) |
| C=CCCC(=O)CC(=O)OCc1ccccc1 | > 100 µM (inactive) | > 100 µM (inactive) | > 100 µM (inactive) | > 100 µM (inactive) | > 100 µM (inactive) | > 100 µM (inactive) | > 100 µM (inactive) | > 100 µM (inactive) | 8.47 µM (inactive) | > 100 µM (inactive) | > 100 µM (inactive) | – | > 100 µM (inactive) | > 100 µM (inactive) | 99.3 µM (inactive) | > 100 µM (inactive) | > 100 µM (inactive) | – | – |
| CCOC(=O)C(=O)Nc1cc(Cl)ccc1Cl | > 100 µM (inactive) | > 100 µM (inactive) | > 100 µM (inactive) | > 100 µM (inactive) | > 100 µM (inactive) | > 100 µM (inactive) | > 100 µM (inactive) | > 100 µM (inactive) | > 100 µM (inactive) | > 100 µM (inactive) | > 100 µM (inactive) | > 100 µM (inactive) | > 100 µM (inactive) | > 100 µM (inactive) | 34.2 µM (inactive) | > 100 µM (inactive) | > 100 µM (inactive) | > 100 µM (inactive) | – |
| OCC12C=CC(C1)c1ccccc12 (configuration not stated) | > 100 µM (inactive) | > 100 µM (inactive) | > 100 µM (inactive) | > 100 µM (inactive) | > 100 µM (inactive) | > 100 µM (inactive) | > 100 µM (inactive) | > 100 µM (inactive) | > 100 µM (inactive) | > 100 µM (inactive) | > 100 µM (inactive) | > 100 µM (inactive) | > 100 µM (inactive) | > 100 µM (inactive) | – | > 100 µM (inactive) | > 100 µM (inactive) | > 100 µM (inactive) | – |
| O=S(O)c1cc(Cl)c(O)c(Cl)c1 | – | > 100 µM (inactive) | – | – | – | > 100 µM (inactive) | > 100 µM (inactive) | > 100 µM (inactive) | > 100 µM (inactive) | > 100 µM (inactive) | > 100 µM (inactive) | > 100 µM (inactive) | – | > 100 µM (inactive) | > 100 µM (inactive) | – | > 100 µM (inactive) | > 100 µM (inactive) | > 100 µM (inactive) |
| CO[C@@]12C[C@@H](C)C3=CCC(C)=C3CC1=C(C)C(=O)O2 | > 100 µM (inactive) | > 100 µM (inactive) | > 100 µM (inactive) | > 100 µM (inactive) | > 100 µM (inactive) | > 100 µM (inactive) | 45.7 µM (inactive) | > 100 µM (inactive) | > 100 µM (inactive) | > 100 µM (inactive) | > 100 µM (inactive) | > 100 µM (inactive) | > 100 µM (inactive) | 68.7 µM (inactive) | 63.4 µM (inactive) | > 100 µM (inactive) | > 100 µM (inactive) | 44.2 µM (inactive) | – |
| CCCNC(=O)Nc1c([N+](=O)[O-])cc(C(F)(F)F)cc1[N+](=O)[O-] | > 100 µM (inactive) | 89.9 µM (inactive) | > 100 µM (inactive) | > 10 µM (inactive) | > 100 µM (inactive) | 86.3 µM (inactive) | > 100 µM (inactive) | – | 43 µM (inactive) | 22.3 µM (inactive) | > 100 µM (inactive) | > 100 µM (inactive) | 28.4 µM (inactive) | > 100 µM (inactive) | 34 µM (inactive) | 40.8 µM (inactive) | > 100 µM (inactive) | 92.9 µM (inactive) | 11 µM (inactive) |
| COc1ccc(-c2ccc(CC(=O)O)cc2)cc1OC | > 100 µM (inactive) | > 100 µM (inactive) | > 100 µM (inactive) | > 100 µM (inactive) | – | > 100 µM (inactive) | > 100 µM (inactive) | > 100 µM (inactive) | > 100 µM (inactive) | > 100 µM (inactive) | > 100 µM (inactive) | > 100 µM (inactive) | > 100 µM (inactive) | > 100 µM (inactive) | 97.5 µM (inactive) | > 100 µM (inactive) | > 100 µM (inactive) | > 100 µM (inactive) | – |
| CCC1(O)C[C@H]2CN(CCCc3c([nH]c4ccccc34)[C@@](C(=O)OC)(c3cc4c(cc3OC)N(C)C3[C@](O)(C(=O)OC)[C@H](OC(C)=O)[C@]5(CC)C=CCN6CC[C@]43[C@H]65)C2)C1 (some centres not stated) | 0.589 µM (active) | > 2.92 µM (inactive) | 2.33 µM (inactive) | 0.593 µM (active) | 2.88 µM (inactive) | 0.726 µM (active) | 0.586 µM (active) | 0.977 µM (active) | 0.743 µM (active) | 0.281 µM (active) | 3.34 µM (inactive) | 3.56 µM (inactive) | 0.333 µM (active) | 0.526 µM (active) | 1.35 µM (inactive) | 0.497 µM (active) | > 10 µM (inactive) | – | 0.834 µM (active) |
